The results in this text go back to US20240352029A1, “CDK Inhibitors And Their Use As Pharmaceuticals” (Prelude Therapeutics Incorporated, priority 2023, published 2024).

Assay [1] concerns the target T1, CDK4/Cyclin D1 (Homo sapiens, UniProt P11802).
T1 construct: purchased ProQinase; host or cells: insect cell
The assay can be described thus: CDK4/CyclinD1 enzymatic activity assay (TR-FRET). The class given is biochemical. The note with it: ATP 2 mM final, read-out: CDK4_D1 IC50. On the procedure: CDK4/CyclinD1 Enzymatic Activity Assay
(§1) The inhibitory activity of compounds was evaluated in vitro using TR-FRET assay with white 384-well low volume microplate (Greiner Bio-One). CDK4/Cyclin D1 catalyzed phosphorylation of peptide in the presence and absence of compounds was measured and used in IC50 determination. Recombinant protein complex CDK4/Cyclin D1, expressed from insect cell, was purchased from ProQinase. Testing compounds were dissolved in DMSO at 1 mM and tested in 9-dose IC50 mode. The reaction mixture was prepared by mixing CDK4/CyclinD1 (1 nM final), ULight-4E-BP1 (100 nM final, Perkinelmer, TRF0128-D), and ATP (2 mM final) in assay buffer (20 mM of HEPES pH 7.4, 1 mM of EGTA, 0.05% BSA, 0.005% Tween 20, and 1 mM TCEP). The compound of interest in DMSO was added to each well in 3-fold serial dilution by dispenser (TECAN D300E) to make a 9.9 μL of reaction mixture. After 20 minutes preincubation at room temperature, 0.1 μL MgCl2 (10 mM final) was added to initiate the reaction. Following a 45 minutes incubation at 37° C., the reaction was stopped by addition of 2 μL of quenching buffer consisting of Lance detection buffer (Perkinelmer CR97-100C), LANCE Ultra Europium-anti-P-4E-BP1 (Perkinelmer, TRF0216-D), EDTA, and incubate at room temperature for additional 60 minutes in dark. The reaction signal was measured by Envision multimode plate reader (PerkinElmer, 2102-0010). IC50 values were determined by fitting the data to the standard 4 parameters with Hill Slope using GraphPad Prism software.
(In general: TR-FRET usually uses a lanthanide donor and a delayed reading to cut background.)

The target of assay [2] is CDK2/Cyclin E2 (Homo sapiens, UniProt P24941). In words: CDK2/CyclinE2 enzymatic activity assay (TR-FRET). The class given is biochemical. The note with it: ATP 1 mM final, read-out: CDK2_E1 IC50. Here is the method: CDK2/CyclinE2 Enzymatic Activity Assay
as §1, with “Bio-One). CDK2/Cyclin E2” for “Bio-One). CDK4/Cyclin D1”, “complex CDK2/Cyclin E2,” for “complex CDK4/Cyclin D1,”, “mixing CDK2/CyclinE2” for “mixing CDK4/CyclinD1”, “ULight-4E-BP1 (50” for “ULight-4E-BP1 (100”, “ATP (1” for “ATP (2”

Assay [3] concerns OVCAR3 p-RB. In words: pRB ICW assay in OVCAR3 cells. It is filed as cell-based. The note with it: Homo sapiens, OVCAR-3, 2 hours incubation with compound. On the procedure:
pRB ICW Assay in OVCAR3 Cells
OVCAR3 cells were maintained in RPMI (Corning, Catalog #: 10-040-CV) supplemented with 10% v/v FBS (Gibco, Catalog #: 26140-079), 1% v/v Penicillin Streptomycin (Gibco, Catalog #15140-122.) OVCAR3 cells grown at log phase were trypsinized, counted, and resuspended in fresh medium to reach a final density of 6.7e4 cells/ml and 75 μL of culture were dispensed into a 384-well plate (Falcon, cat #353962) using Multidrop Combi dispenser (Thermo Scientific). The next day, compounds were dispensed as a 9-point, ½ log serial dilution using a Tecan digital dispenser (D300e), and cells were incubated with compound for 2 hours in a humidified incubator at 37° C. A reference compound at a final concentration of 10 μM was used as a control for maximum inhibition. Each compound was tested in duplicates in each experiment. At the end of the incubation, 25 μl of 16% paraformaldehyde (Electron Microscopy, cat #15710) was slowly added to each well and the plate was incubated at room temperature (RT) for 30 minutes to fix cells. Cells were then permeabilized by incubating with 50 μl/well of wash buffer (1×PBS with 0.1% Triton X-100) 5×5 minutes, followed by 1 hour blocking with 30 μl/well of Odyssey blocking buffer (Li—COR, cat #927-40000), all at RT. Anti-phosphor RB antibody (Cell signaling 8516S) was diluted 1:1000 in Odyssey blocking buffer and 20 μl was added to all wells and incubated overnight in 4° C. with gently rocking. The next day, cells were washed 5×5 min with 50 μl/well of wash buffer, followed with 1 hour incubation with secondary antibody and DRAQ5 diluted in Odyssey blocking buffer (1:500 dilution for secondary antibody and 1:2000 dilution for DRAQ5), 5×5 min washes, and one last wash with water. Plates were dried in 37° C. oven for 5 min and scanned using Li—COR Odyssey CLx imaging system to acquire intensities at 700 and 800 nm channels.

Molecules are shown by their SMILES. Where only a bound is given, the exact number is not on record here.

T1 sequence (P11802 whole entry): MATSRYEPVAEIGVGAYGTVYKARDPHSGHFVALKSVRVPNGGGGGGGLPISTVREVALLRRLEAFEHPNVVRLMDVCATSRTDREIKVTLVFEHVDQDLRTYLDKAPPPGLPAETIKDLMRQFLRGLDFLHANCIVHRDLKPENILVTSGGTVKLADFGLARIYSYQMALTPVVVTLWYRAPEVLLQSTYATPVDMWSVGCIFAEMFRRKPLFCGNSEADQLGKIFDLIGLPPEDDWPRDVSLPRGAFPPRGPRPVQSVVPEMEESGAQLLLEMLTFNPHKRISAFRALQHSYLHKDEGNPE
T1 sequence (P24385 whole entry partner): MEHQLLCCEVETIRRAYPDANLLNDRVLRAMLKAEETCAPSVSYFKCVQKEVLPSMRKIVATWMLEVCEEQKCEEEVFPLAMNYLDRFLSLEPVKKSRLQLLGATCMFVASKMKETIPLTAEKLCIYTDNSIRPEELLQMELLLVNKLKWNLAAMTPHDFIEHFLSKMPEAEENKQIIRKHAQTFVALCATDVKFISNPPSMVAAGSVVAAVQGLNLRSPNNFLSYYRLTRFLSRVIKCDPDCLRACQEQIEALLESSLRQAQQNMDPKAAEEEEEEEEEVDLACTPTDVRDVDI

Regarding `Cc1c(-c2nc(N[C@H]3CCN(S(C)(=O)=O)C[C@H]3C)ncc2F)sc2c1C(=O)NC2(C)C` [Example 1, 2-(5-Fluoro-2-(((3R,4S)-3-methyl-1-(methylsulfonyl)piperidin-4-yl)amino)pyrimidin-4-yl)-3,6,6-trimethyl-5,6-dihydro-4H-thieno[2,3-c]pyrrol-4-one], the IC50 in assay [1], in assay [2] and in assay [3] was ≤ 100 nM throughout.

As to `Cc1c(-c2nc(N[C@H]3CCN(S(C)(=O)=O)C[C@H]3F)ncc2F)sc2c1C(=O)NC2(C)C` [Example 2, 2-(5-fluoro-2-(((3R,4S)-3-fluoro-1-(methylsulfonyl)piperidin-4-yl)amino)pyrimidin-4-yl)-3,6,6-trimethyl-5,6-dihydro-4H-thieno[2,3-c]pyrrol-4-one], the IC50 in assay [1], in assay [2] and in assay [3] was ≤ 100 nM in each case.

For the compound `Cc1c(-c2nc(NC3CCN(S(C)(=O)=O)CC3)ncc2F)sc2c1C(=O)NC2(C)C` [Example 3, 2-(5-fluoro-2-((1-(methylsulfonyl)piperidin-4-yl)amino)pyrimidin-4-yl)-3,6,6-trimethyl-5,6-dihydro-4H-thieno[2,3-c]pyrrol-4-one], the 50% inhibitory concentration (IC50) in assay [1], in assay [2] and in assay [3] was ≤ 100 nM in each case.

Regarding `Cc1c(-c2nc(NC3CCN(S(C)(=O)=O)CC3)ncc2F)sc2c1C(=O)NC2` [Example 4, 2-(5-fluoro-2-((1-(methylsulfonyl)piperidin-4-yl)amino)pyrimidin-4-yl)-3-methyl-5,6-dihydro-4H-thieno [2,3-c]pyrrol-4-one], the IC50 in assay [2] and in assay [3] was ≤ 100 nM throughout.

Take `Cc1c(-c2nc(N[C@H]3CCN(S(C)(=O)=O)C[C@H]3C)ncc2F)sc2c1C(=O)NC2` [Example 5, 2-(5-Fluoro-2-(((3R,4S)-3-methyl-1-(methylsulfonyl)piperidin-4-yl)amino)pyrimidin-4-yl)-3-methyl-5,6-dihydro-4H-thieno[2,3-c]pyrrol-4-one]: the IC50 in assay [2] and in assay [3] was ≤ 100 nM in each case.

As to `C[C@@H]1CN(S(C)(=O)=O)CC[C@@H]1Nc1ncc(C(F)(F)F)c(-c2cc3c(s2)C(C)(C)NC3=O)n1` [Example 6, 6,6-Dimethyl-2-(2-(((3R,4S)-3-methyl-1-(methylsulfonyl)piperidin-4-yl)amino)-5-(trifluoromethyl)pyrimidin-4-yl)-5,6-dihydro-4H-thieno[2,3-c]pyrrol-4-one], the IC50 in assay [1], in assay [2] and in assay [3] was ≤ 100 nM throughout.

`C[C@@H]1CN(S(=O)(=O)c2cnn(C)c2)CC[C@@H]1Nc1ncc(C(F)(F)F)c(-c2cc3c(s2)C(C)(C)NC3=O)n1` [Example 7, 6,6-dimethyl-2-(2-(((3R,4S)-3-methyl-1-((1-methyl-1H-pyrazol-4-yl)sulfonyl)piperidin-4-yl)amino)-5-(trifluoromethyl)pyrimidin-4-yl)-5,6-dihydro-4H-thieno[2,3-c]pyrrol-4-one]: the IC50 in assay [1], in assay [2] and in assay [3] was ≤ 100 nM each time.

On to `C[C@@H]1CN(S(=O)(=O)c2cn(C)cn2)CC[C@@H]1Nc1ncc(C(F)(F)F)c(-c2cc3c(s2)C(C)(C)NC3=O)n1` [Example 8, 6,6-dimethyl-2-(2-(((3R,4S)-3-methyl-1-((1-methyl-1H-imidazol-4-yl)sulfonyl)piperidin-4-yl)amino)-5-(trifluoromethyl)pyrimidin-4-yl)-5,6-dihydro-4H-thieno[2,3-c]pyrrol-4-one], for which the IC50 in assay [1], in assay [2] and in assay [3] was ≤ 100 nM throughout.

`C[C@@H]1CN(S(=O)(=O)c2cn[nH]c2)CC[C@@H]1Nc1ncc(C(F)(F)F)c(-c2cc3c(s2)C(C)(C)NC3=O)n1` [Example 9, 2-(2-(((3R,4S)-1-((1H-pyrazol-4-yl)sulfonyl)-3-methylpiperidin-4-yl)amino)-5-(trifluoro-methyl)pyrimidin-4-yl)-6,6-dimethyl-5,6-dihydro-4H-thieno[2,3-c]pyrrol-4-one]: the IC50 in assay [1], in assay [2] and in assay [3] was ≤ 100 nM in each case.

Turning to `C[C@@H]1CN(S(=O)(=O)c2c[nH]cn2)CC[C@@H]1Nc1ncc(C(F)(F)F)c(-c2cc3c(s2)C(C)(C)NC3=O)n1` [Example 10, 2-(2-(((3R,4S)-1-((1H-imidazol-4-yl)sulfonyl)-3-methylpiperidin-4-yl)amino)-5-(trifluoro-methyl)pyrimidin-4-yl)-6,6-dimethyl-5,6-dihydro-4H-thieno[2,3-c]pyrrol-4-one], the IC50 in assay [1], in assay [2] and in assay [3] was ≤ 100 nM throughout.

As for `Cn1cc(S(=O)(=O)N2CCC(Nc3ncc(C(F)(F)F)c(-c4cc5c(s4)C(C)(C)NC5=O)n3)CC2)cn1` [Example 11, 6,6-dimethyl-2-(2-((1-((1-methyl-1H-pyrazol-4-yl)sulfonyl)piperidin-4-yl)amino)-5-(trifluoro-methyl)pyrimidin-4-yl)-5,6-dihydro-4H-thieno[2,3-c]pyrrol-4-one], the IC50 in assay [1], in assay [2] and in assay [3] was ≤ 100 nM in each case.

Take `C[C@@H]1CN(S(C)(=O)=O)CC[C@@H]1Nc1ncc(C(F)(F)F)c(-c2cc3c(s2)CNC3=O)n1` [Example 18, 2-(2-(((3R,4S)-3-methyl-1-(methylsulfonyl)piperidin-4-yl)amino)-5-(trifluoro-methyl)pyrimidin-4-yl)-5,6-dihydro-4H-thieno[2,3-c]pyrrol-4-one]: the IC50 in assay [2] was ≤ 100 nM; in assay [3], 100 to 500 nM.

Regarding `CS(=O)(=O)N1CC[C@H](Nc2ncc(C(F)(F)F)c(-c3cc4c(s3)CNC4=O)n2)[C@H](F)C1` [Example 19, 2-(2-(((3R,4S)-3-fluoro-1-(methylsulfonyl)piperidin-4-yl)amino)-5-(trifluoro-methyl)pyrimidin-4-yl)-5,6-dihydro-4H-thieno[2,3-c]pyrrol-4-one], the IC50 in assay [2] and in assay [3] was ≤ 100 nM in each case.

As to `O=C1NCc2sc(-c3nc(N[C@H]4CCN(S(=O)(=O)c5cn[nH]c5)C[C@H]4F)ncc3C(F)(F)F)cc21` [Example 22, 2-(2-(((3R,4S)-1-((1H-pyrazol-4-yl)sulfonyl)-3-fluoropiperidin-4-yl)amino)-5-(trifluoromethyl)pyrimidin-4-yl)-5,6-dihydro-4H-thieno[2,3-c]pyrrol-4-one], the IC50 in assay [2] and in assay [3] was ≤ 100 nM each time.

One may read the IC50 as the midpoint of a concentration-inhibition curve.
